Values quoted from earlier work, collected in patent US8765470B2, “Reprogramming immortalized B-cells to induced pluripotent stem cells” (Cellular Dynamics International, Inc., priority 2010, dated 2014).

Assays:
EBV replication = conditions: in vitro; Lin et al., 1983
EBV = conditions: Norseen et al., 2009
Epstein-Barr virus (EBV) = conditions: anti-EBV activity; Kira et al., 2000; read-out: 50% effective concentration
[1] = Kira et al., 2000

Row | SMILES | inhibition of EBV replication (EBV replication) | effect on EBV proliferation (EBV) | further results
1 | Nc1nc(=O)n([C@@H]2O[C@H](CO)[C@@H](O)[C@@H]2F)cc1I [1-(2-deoxy-2-fluoro-beta-D-arabinofuranosyl)-5-iodocytosine] | potent inhibitors | – | –
2 | Cc1cn([C@@H]2O[C@H](CO)[C@@H](O)[C@@H]2F)c(=O)[nH]c1=O [1-(2-deoxy-2-fluoro-beta-D-arabinofuranosyl)-5-methyluracil] | potent inhibitors | – | –
3 | CN(C)c1ccc(Nc2c3ccc(NC(=O)CCN4CCCC4)cc3nc3cc(NC(=O)CCN4CCCC4)ccc23)cc1 [BRACO-19] | – | block EBV proliferation | –
4 | O=c1[nH]c(=O)n([C@H]2C[C@H](O)[C@@H](CO)O2)cc1/C=C/Br [E-5-(2-bromovinyl)-2′-deoxyuridine] | potent inhibitors | – | –
5 | C[n+]1cccc(-c2c3nc(c(-c4ccc[n+](C)c4)c4ccc([nH]4)c(-c4ccc[n+](C)c4)c4nc(c(-c5ccc[n+](C)c5)c5ccc2[nH]5)C=C4)C=C3)c1 [TMPyP3] | – | block EBV proliferation | –
6 | C[n+]1ccc(-c2c3nc(c(-c4cc[n+](C)cc4)c4ccc([nH]4)c(-c4cc[n+](C)cc4)c4ccc([nH]4)c(-c4cc[n+](C)cc4)c4nc2C=C4)C=C3)cc1 [TMPyP4] | – | block EBV proliferation | –
7 | O=c1[nH]c(=O)n([C@@H]2CO[C@H](CO)O2)cc1I [beta-L-5-Iododioxolane uracil] | – | – | EC50 (Epstein-Barr virus (EBV)): 30 nM; 50% cytotoxic concentration [1]: 1,000 microM
